Measured values: patent US5593970A, “Heterocyclic anthracycline analogs” (priority 1994, dated 1997)
Like-named read-outs stand apart in the source and are kept apart here.

Legend:
HT29 = experiment: Microculture tetrazolium assay; assay type: cell-based; conditions: read-out: IC50
SKOV3 = experiment: Microculture tetrazolium assay; assay type: cell-based; conditions: read-out: IC50
T47D = experiment: Microculture tetrazolium assay; assay type: cell-based; conditions: read-out: IC50
SKVLB = experiment: Microculture tetrazolium assay; assay type: cell-based; conditions: for VLB/OV3: IC50 ratio SKVLB/SKOV3; for IC50: SKVLB, read-out: IC50
LOX = experiment: Microculture tetrazolium assay; assay type: cell-based; conditions: read-out: IC50
Ovarian = experiment: NCI assay, average per cancer type
Renal = experiment: NCI assay, average per cancer type
solid tumors = experiment: NCI assay, mean potency in solid tumors
SC Lung = experiment: NCI assay, average per cancer type
Melanoma = experiment: NCI assay, average per cancer type
CNS = experiment: NCI assay, average per cancer type
NSC Lung = experiment: NCI assay, average per cancer type
Colon = experiment: NCI assay, average per cancer type
Leukemia = experiment: NCI assay, average per cancer type
[1] = Homo sapiens, read-out: Average LOG10 GI50
[2] = Homo sapiens, 48 h, read-out: Average LOG10 LC50

## CC(=O)C1CC2=C(C(=O)c3cc4ccccc4c(O)c3C2=O)C(O[C@H]2C[C@H](NC(=O)C(F)(F)F)[C@H](OS(C)(=O)=O)[C@H](C)O2)O1 (stereo partly shown) [BCH-2094]
HT29; Homo sapiens, HT-29, HT29
  IC50: 1.06 µM
SKOV3; Homo sapiens, SK-OV-3, SKOV3
  IC50: 4.7 µM
T47D; Homo sapiens
  IC50: 6.51 µM
SKVLB
  VLB/OV3: 2.55
  IC50: 12 µM
LOX
  IC50: 1.4 µM

## COc1cccc2c1C(=O)c1c(O)c3c(c(O)c1C2=O)C[C@@](O)(C(C)=O)C[C@@H]3O[C@H]1C[C@H](N)[C@H](O)[C@H](C)O1 [DNM, reference compound]
Ovarian; [1]
  GI50: 0.138 µM
Ovarian; Ovarian, 2880 min
  Average LOG10 LC50: -4.78 ± 0.20 log molar
Renal; [2]
  CC50: 16.6 µM
Renal; [1]
  GI50: 0.162 µM
Renal; Renal, 2880 min
  Average LOG10 LC50: -4.78 ± 0.46 log molar
Solid tumors; Homo sapiens, read-out: Average LOG10 GI50, Mean Potency in solid tumors
  GI50: 0.112 µM
Solid tumors; solid tumors, 2880 min
  Average LOG10 LC50, Mean Potency in solid tumors: -5.11 ± 0.34 log molar
SC Lung; [1]
  GI50: 0.0724 µM
SC Lung; SC Lung, 2880 min
  Average LOG10 LC50: -5.58 ± 0.09 log molar
Melanoma; [2]
  CC50: 2.29 µM
Melanoma; [1]
  GI50: 0.112 µM
Melanoma; Melanoma, 2880 min
  Average LOG10 LC50: -5.64 ± 0.17 log molar
CNS; CNS, 2880 min
  Average LOG10 LC50: -5.08 ± 0.42 log molar
CNS; [1]
  GI50: 0.0912 µM
NSC Lung; [2]
  CC50: 8.51 µM
NSC Lung; [1]
  GI50: 0.0912 µM
NSC Lung; NSC Lung, 2880 min
  Average LOG10 LC50: -5.07 ± 0.37 log molar
Colon; Colon, 2880 min
  Average LOG10 LC50: -4.83 ± 0.37 log molar
Colon; [2]
  CC50: 14.8 µM
Colon; [1]
  GI50: 0.151 µM
Leukemia; 48 h, read-out: Average LOG10 LC50
  CC50: 50.1 µM
Leukemia; Leukemia, 2880 min
  Average LOG10 LC50: -4.30 ± 0.36 log molar
Leukemia; read-out: Average LOG10 GI50
  GI50: 0.0562 µM

## (1'S,1R,3R) and (1'S,1S,3S)-5,12-dioxo-3-ethyl-6-hydroxy-1-(2',3',6'-trideoxy-3'-trifluoroacetamido-4'-O-p-nitrobenzoyl-L-lyxohexopyranose)-3,4,5,12-tetrahydroanthraceno[2,3-C]pyran [BCH-1199]
HT29; HT29
  IC50: > 100 µM
SKOV3; SKOV3
  IC50: 32.3 µM
T47D
  IC50: 46.2 µM
SKVLB
  IC50: > 100 µM
LOX
  IC50: > 100 µM

## (1'S,1R,3S) and (1'S,1S,3R)-Methyl-1-(2',3',6'-trideoxy-3-trifluoroacetamido-4'-O-p-nitrobenzoyl-L-lyxohexopyranose)-6,11'dioxo-5'-hydroxy-12-acetoxy-3,4,6,11-tetrahydroanthra-ceno-[2,3-C]-pyran-3-yl) ketone [BCH-1163]
HT29; HT29
  IC50: 4.67 µM
SKOV3; SKOV3
  IC50: 11 µM
T47D
  IC50: 5 µM
SKVLB
  VLB/OV3: 1.05
  IC50: 11.6 µM
LOX
  IC50: 26.1 µM
